Source: patent US10428080B2, “TBK/IKK inhibitor compounds and uses thereof” (Merck Patent GmbH, priority 2015, dated 2019)
Where two headings read alike, the source gives them in different places.

Legend:
IKKε = target: T1, IKKε (Homo sapiens, UniProt Q14164); assay: IKKe Biochemical Assay; settings: read-out: IKKε IC50
T1 sequence (Q14164 1-716): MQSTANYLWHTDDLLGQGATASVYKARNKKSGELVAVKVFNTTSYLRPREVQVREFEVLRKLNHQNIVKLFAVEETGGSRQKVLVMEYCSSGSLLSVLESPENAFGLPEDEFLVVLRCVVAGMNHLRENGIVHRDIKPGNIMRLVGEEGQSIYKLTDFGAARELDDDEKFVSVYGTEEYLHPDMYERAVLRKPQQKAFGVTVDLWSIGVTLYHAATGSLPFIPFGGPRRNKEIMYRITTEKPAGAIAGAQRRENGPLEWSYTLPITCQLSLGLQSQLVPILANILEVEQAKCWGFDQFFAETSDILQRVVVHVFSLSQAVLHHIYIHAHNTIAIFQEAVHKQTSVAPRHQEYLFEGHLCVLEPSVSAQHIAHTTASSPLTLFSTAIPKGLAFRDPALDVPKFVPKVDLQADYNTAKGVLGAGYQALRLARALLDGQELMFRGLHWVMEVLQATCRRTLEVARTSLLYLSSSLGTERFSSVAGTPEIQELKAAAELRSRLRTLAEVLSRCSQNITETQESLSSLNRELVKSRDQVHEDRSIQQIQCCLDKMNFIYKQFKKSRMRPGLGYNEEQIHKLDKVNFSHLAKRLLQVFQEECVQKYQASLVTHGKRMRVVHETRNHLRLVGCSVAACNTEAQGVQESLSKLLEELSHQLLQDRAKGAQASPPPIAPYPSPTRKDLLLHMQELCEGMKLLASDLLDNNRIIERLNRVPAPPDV
Procedure, shortened: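 Activity was measured as mobility-shift separation of phosphorylated from unphosphorylated substrate on a LabChip EZ Reader. Compound was titrated from 30 uM final in 10 points, 1:4 steps, with 1% DMSO, and enzyme plus substrate reacted 90 min at 25° C before stop buffer. Control wells held 10 uM staurosporine.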

TBK1 = target: T2, TBK1 (Homo sapiens, UniProt Q9UHD2); assay: TBK Biochemical Assay; settings: read-out: TBK1 IC50
T2 sequence (Q9UHD2 1-729): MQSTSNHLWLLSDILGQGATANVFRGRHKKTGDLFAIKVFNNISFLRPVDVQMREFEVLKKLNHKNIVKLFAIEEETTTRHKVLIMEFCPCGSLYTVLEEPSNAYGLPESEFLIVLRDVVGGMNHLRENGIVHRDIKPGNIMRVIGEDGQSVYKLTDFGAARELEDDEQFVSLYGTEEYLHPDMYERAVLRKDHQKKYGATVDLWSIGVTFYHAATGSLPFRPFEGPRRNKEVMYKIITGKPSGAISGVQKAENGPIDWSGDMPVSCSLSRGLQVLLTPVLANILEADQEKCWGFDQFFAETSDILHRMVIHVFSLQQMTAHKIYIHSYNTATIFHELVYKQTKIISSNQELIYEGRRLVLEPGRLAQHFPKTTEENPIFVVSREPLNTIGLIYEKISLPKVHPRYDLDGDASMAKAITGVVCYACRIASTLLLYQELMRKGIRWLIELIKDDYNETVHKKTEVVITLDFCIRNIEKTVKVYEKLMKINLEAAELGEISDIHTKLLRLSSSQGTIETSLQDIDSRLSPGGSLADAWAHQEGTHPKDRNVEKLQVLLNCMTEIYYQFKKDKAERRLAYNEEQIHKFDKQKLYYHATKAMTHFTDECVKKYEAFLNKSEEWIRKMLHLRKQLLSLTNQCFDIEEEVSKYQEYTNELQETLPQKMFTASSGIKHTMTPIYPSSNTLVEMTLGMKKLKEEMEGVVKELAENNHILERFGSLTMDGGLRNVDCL
Procedure, shortened: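 Caliper LabChip mobility-shift readout of substrate and product after 90 min of TBK1 reaction at 25° C and stop-buffer addition. Compounds tested in 1:4 serial dilution over 10 points from 30 uM final at 1% DMSO; staurosporine 10 uM final defines full inhibition.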

[1] = system: phosphorylation of the IRF-3 protein in MDA-MB-468 cells; assay: pIRF3 immunocytochemistry cell based assay
Procedure, shortened: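 After 2 h stimulation with Poly(I:C) (10 ug/ml), following 1 h compound pre-treatment (10-point, 3-fold dilution, top 10 uM), MDA-MB-468 cells were fixed and stained with anti-pIRF3 antibody. pIRF3 fluorescence was normalized to PI staining or cell count on an Acumen cytometer. IC50 curves were derived from this.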

[2] = Homo sapiens, MDA-MB-468 cells, Poly(I:C) stimulation, read-out: pIRF3 IC50
[3] = MDA-MB-468 cells, Poly(I:C) stimulation, read-out: pIRF3 IC50

| IC50 [1, 2] [nM] | SMILES | IC50 (IKKε) [nM] | IC50 (TBK1) [nM] | IC50 [1, 3] [nM] | IC50 ([1]; Homo sapiens, MDA-MB-468, read-out: pIRF3 IC50) [nM] |
| --- | --- | --- | --- | --- | --- |
| – | COc1cc(C(=O)NC2CN3CCC2CC3)cnc1-c1cc2nccc(-c3ccc(N4CC[C@H](F)C4)c(C#N)c3)c2o1 (stereo partly drawn) [Compound 441, N—(R)-1-Aza-bicyclo[2.20.2]oct-3-yl-6-{7-[3-cyano-4-((S)-3-fluoro-pyrrolidin-1-yl)-phenyl]-furo[3,2-b]pyridin-2-yl}-5-methoxy-nicotinamide] | < 100 | < 100 | 100 to 1000 | – |
| – | COc1cc(C(=O)NC2CN3CCC2CC3)cnc1-c1cc2nccc(-c3ccc(N4CC[C@@H](F)C4)c(C#N)c3)c2o1 (stereo partly drawn) [Compound 442, N—(R)-1-Aza-bicyclo[2.20.2]oct-3-yl-6-{7-[3-cyano-4-((R)-3-fluoro-pyrrolidin-1-yl)-phenyl]-furo[3,2-b]pyridin-2-yl}-5-methoxy-nicotinamide] | < 100 | < 100 | 100 to 1000 | – |
| < 100 | COc1cc(C(=O)N2CC[C@H](N(C)C)C2)cnc1-c1cc2nccc(-c3ccc(N4CC[C@H](F)C4)c(C#N)c3)c2o1 [Compound 447, 5-{2-[5-((S)-3-Dimethylamino-pyrrolidine-1-carbonyl)-3-methoxy-pyridin-2-yl]-furo[3,2-b]pyridin-7-yl}-2-((S)-3-fluoro-pyrrolidin-1-yl)-benzonitrile] | < 100 | < 100 | – | – |
| < 100 | COc1cc(C(=O)N2CC[C@H](N(C)C)C2)cnc1-c1cc2nccc(-c3ccc(N4CC[C@@H](F)C4)c(C#N)c3)c2o1 [Compound 448, 5-{2-[5-((S)-3-Dimethylamino-pyrrolidine-1-carbonyl)-3-methoxy-pyridin-2-yl]-furo[3,2-b]pyridin-7-yl}-2-((R)-3-fluoro-pyrrolidin-1-yl)-benzonitrile] | < 100 | < 100 | – | – |
| < 100 | COc1cc(C(=O)N2CC[C@H](N(C)C)C2)ncc1-c1cc2nccc(-c3ccc(N4CC[C@H](F)C4)c(C#N)c3)c2o1 [Compound 449, 5-[2-(6-[[(3S)-3-(dimethylamino)pyrrolidin-1-yl]carbonyl]-4-methoxypyridin-3-yl)furo[3,2-b]pyridin-7-yl]-2-[(3S)-3-fluoropyrrolidin-1-yl]benzonitrile] | < 100 | < 100 | – | – |
| 100 to 1000 | COc1cc(C(=O)N2CC[C@@H](N(C)C)C2)ncc1-c1cc2nccc(-c3ccc(N4CC[C@H](F)C4)c(C#N)c3)c2o1 [Compound 450, 5-[2-(6-[[(3R)-3-(dimethylamino)pyrrolidin-1-yl]carbonyl]-4-methoxypyridin-3-yl)furo[3,2-b]pyridin-7-yl]-2-[(3S)-3-fluoropyrrolidin-1-yl]benzonitrile] | < 100 | < 100 | – | – |
| 100 to 1000 | COc1cc(C(=O)NC2C3COCC32)ncc1-c1cc2nccc(-c3ccc(N4CC[C@H](F)C4)c(C#N)c3)c2o1 (stereo partly drawn) [Compound 451, 5-(7-[3-cyano-4-[(3S)-3-fluoropyrrolidin-1-yl]phenyl]furo[3,2-b]pyridin-2-yl)-4-methoxy-N-[3-oxabicyclo[3.1.0]hexan-6-yl]pyridine-2-carboxamide] | < 100 | < 100 | – | – |
| – | COc1cc(C(=O)N2CC3CN(C)CC3C2)cnc1-c1cc2nccc(-c3ccc(N4CC[C@@H](F)C4)c(C#N)c3)c2o1 (stereo partly drawn) [Compound 452, 2-[(3R)-3-fluoropyrrolidin-1-yl]-5-[2-[3-methoxy-5-([5-methyl-octahydropyrrolo[3,4-c]pyrrol-2-yl]carbonyl)pyridin-2-yl]furo[3,2-b]pyridin-7-yl]benzonitrile] | < 100 | < 100 | – | 100 to 1000 |
| 100 to 1000 | COc1cc(C(=O)N2CC[C@@H](N(C)C)C2)cnc1-c1cc2nccc(-c3ccc(N4CCC(F)C4)c(C#N)c3)c2o1 (stereo partly drawn) [Compound 454, 5-[2-(5-[[(3R)-3-(dimethylamino)pyrrolidin-1-yl]carbonyl]-3-methoxypyridin-2-yl)furo[3,2-b]pyridin-7-yl]-2-(3-fluoropyrrolidin-1-yl)benzonitrile] | < 100 | < 100 | – | – |
| < 100 | COc1cc(C(=O)N2CC[C@@H](N(C)C)C2)cnc1-c1cc2nccc(-c3ccc(N4CC[C@H](F)C4)c(C#N)c3)c2o1 [Compound 455, 5-[2-(5-[[(3R)-3-(dimethylamino)pyrrolidin-1-yl]carbonyl]-3-methoxypyridin-2-yl) (S)-furo[3,2-b]pyridin-7-yl]-2-(3-fluoropyrrolidin-1-yl)benzonitrile] | < 100 | < 100 | – | – |

| SMILES | IC50 [1, 2] [nM] | IC50 (IKKε) [nM] | IC50 (TBK1) [nM] | IC50 [1, 3] [nM] | IC50 ([1]; Homo sapiens, MDA-MB-468, read-out: pIRF3 IC50) [nM] |
| --- | --- | --- | --- | --- | --- |
| COc1cc(C(=O)NC2CN3CCC2CC3)cnc1-c1cc2nccc(-c3ccc(N4CCC(F)C4)c(C#N)c3)c2o1 (stereo not drawn) [Compound 438, N-[1-azabicyclo[2.2.2]octan-3-yl]-6-[7-[3-cyano-4-(3-fluoropyrrolidin-1-yl)phenyl]furo[3,2-b]pyridin-2-yl]-5-methoxypyridine-3-carboxamide] | 100 to 1000 | < 100 | < 100 | – | – |
| COc1cc(C(=O)NC2CN3CCC2CC3)cnc1-c1cc2nccc(-c3ccc(N4CC[C@H](F)C4)c(C#N)c3)c2o1 (stereo partly drawn) [Compound 439, N—(S)-1-Aza-bicyclo[2.20.2]oct-3-yl-6-{7-[3-cyano-4-((S)-3-fluoro-pyrrolidin-1-yl)-phenyl]-furo[3,2-b]pyridin-2-yl}-5-methoxy-nicotinamide] | 100 to 1000 | < 100 | < 100 | – | – |
| COc1cc(C(=O)NC2CN3CCC2CC3)cnc1-c1cc2nccc(-c3ccc(N4CC[C@@H](F)C4)c(C#N)c3)c2o1 (stereo partly drawn) [Compound 440, N—(S)-1-Aza-bicyclo[2.20.2]oct-3-yl-6-{7-[3-cyano-4-((R)-3-fluoro-pyrrolidin-1-yl)-phenyl]-furo[3,2-b]pyridin-2-yl}-5-methoxy-nicotinamide] | 100 to 1000 | < 100 | < 100 | – | – |
| COc1cc(C(=O)NC2CN3CCC2CC3)ncc1-c1cc2nccc(-c3ccc(N4CCC(F)C4)c(C#N)c3)c2o1 (stereo not drawn) [Compound 443, N-[1-azabicyclo[2.2.2]octan-3-yl]-5-[7-[3-cyano-4-(3-fluoropyrrolidin-1-yl)phenyl]furo[3,2-b]pyridin-2-yl]-4-methoxypyridine-2-carboxamide] | 100 to 1000 | < 100 | < 100 | – | – |
| COc1cc(C(=O)N[C@@H]2CN3CCC2CC3)ncc1-c1cc2nccc(-c3ccc(N4CC[C@H](F)C4)c(C#N)c3)c2o1 [Compound 444, 5-{7-[3-Cyano-4-((S)-3-fluoro-pyrrolidin-1-yl)-phenyl]-furo[3,2-b]pyridin-2-yl}-4-methoxy-pyridine-2-carboxylic acid (1-aza-bicyclo[2.20.2]oct-3-yl)-amide] | < 100 | < 100 | < 100 | – | – |
| COc1cc(C(=O)N[C@@H]2CN3CCC2CC3)ncc1-c1cc2nccc(-c3ccc(N4CC[C@@H](F)C4)c(C#N)c3)c2o1 [Compound 445, 5-{7-[3-Cyano-4-((R)-3-fluoro-pyrrolidin-1-yl)-phenyl]-furo[3,2-b]pyridin-2-yl}-4-methoxy-pyridine-2-carboxylic acid (1-aza-bicyclo[2.20.2]oct-3-yl)-amide] | < 100 | < 100 | < 100 | – | – |
